1 compound from PMC12374823, “A Small Molecule Selectively Targets N-Myc to Suppress Neuroblastoma Cancer Progression” (International Journal of Biological Sciences, 2025) can be followed below.

In general, Kd refers to the concentration at which binding is half-saturated.

For one assay, the target named is T1, N-Myc (Homo sapiens, UniProt P04198).
T1 construct: gene MYCN; N-Myc^1-464
T1 sequence (P04198 1-464): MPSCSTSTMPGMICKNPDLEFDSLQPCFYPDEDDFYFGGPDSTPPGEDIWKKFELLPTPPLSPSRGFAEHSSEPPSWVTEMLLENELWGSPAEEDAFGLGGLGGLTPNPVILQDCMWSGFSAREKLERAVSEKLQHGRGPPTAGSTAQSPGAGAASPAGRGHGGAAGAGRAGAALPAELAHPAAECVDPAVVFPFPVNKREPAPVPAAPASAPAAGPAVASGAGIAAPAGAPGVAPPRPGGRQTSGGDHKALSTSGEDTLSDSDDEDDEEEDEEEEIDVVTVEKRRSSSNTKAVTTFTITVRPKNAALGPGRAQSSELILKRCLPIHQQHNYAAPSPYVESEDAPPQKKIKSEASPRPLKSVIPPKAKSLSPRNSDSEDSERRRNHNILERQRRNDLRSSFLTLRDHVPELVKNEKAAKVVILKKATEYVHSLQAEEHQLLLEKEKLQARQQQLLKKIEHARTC
The experiment in a line: microscale thermophoresis (MST) with labeled purified N-Myc; supported by CETSA in cells. It counts as binding.

Another assay has as its target T2, c-Myc (Homo sapiens, UniProt P01106).
T2 construct: c-Myc^1-439
As to the kind of experiment: microscale thermophoresis (MST) with labeled recombinant c-Myc. The format is binding.

T2 sequence (P01106 16-454): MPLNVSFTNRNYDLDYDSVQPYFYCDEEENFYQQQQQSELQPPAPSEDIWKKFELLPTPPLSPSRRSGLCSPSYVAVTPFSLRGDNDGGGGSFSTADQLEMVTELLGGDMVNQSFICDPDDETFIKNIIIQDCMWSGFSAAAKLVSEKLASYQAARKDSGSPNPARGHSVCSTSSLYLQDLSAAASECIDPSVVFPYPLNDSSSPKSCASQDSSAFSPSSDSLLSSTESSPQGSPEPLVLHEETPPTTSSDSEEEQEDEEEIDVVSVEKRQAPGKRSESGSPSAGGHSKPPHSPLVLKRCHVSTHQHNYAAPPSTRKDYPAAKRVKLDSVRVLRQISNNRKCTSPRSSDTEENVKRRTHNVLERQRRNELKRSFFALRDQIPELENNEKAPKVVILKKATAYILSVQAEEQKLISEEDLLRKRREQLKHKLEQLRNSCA

For the compound `COc1ccc(-n2nc3ccc(NC(=O)CBr)cc3n2)cc1` [N78], the dissociation constant (Kd) worked out at 1.47 ± 0.52 µM at N-Myc and 8.48 ± 2.61 µM at c-Myc.
